4 compounds from patent US11572475B2, “Carbocyanines for G-quadruplex DNA stabilization and telomerase inhibition” (GEORGIA STATE UNIVERSITY RESEARCH FOUNDATION, INC., priority 2011, dated 2023) can be followed below.

One experiment has as its system Duplex DNA. Kind of experiment: Thermal melting UV-Vis absorbance, duplex DNA. It counts as binding. The following applies: 1:1 ratio. As for the experimental part: (§1) Three DNA sequences were used: Human Telomere (HTelo), c-myc, and Duplex (Integrated DNA Technologies, San Diego, Calif.). The sequences are shown below:
(§2) The buffer used was 10 mM Tris base (Fischer Scientific, Fairlawn, N.J.), 50 mM Potassium Chloride (Fischer Scientific, Fairlawn, N.J.), with the pH adjusted to 7.5 with Hydrochloric Acid (Fischer Scientific, Fairlawn, N.J.).
(§3) DNA folding and unfolding (melting) can be measured using absorbance at a constant wavelength of 260 nm for duplex DNA and 295 nm for quadruplex DNA while the temperature is increased, for example from 25° C. to 95° C. At these wavelengths, the resulting curves decrease in absorbance for quadruplex and increase for duplex DNA. Buffer solution and presence of DNA-binding compounds alter the Tm melting temperature, or midpoint between fully folded and unfolded. An increase in melting temperature in the presence of DNA-binding compounds indicates a stabilizing effect of the compound on the DNA structure.
(§4) The selectivity of a given cyanine for quadruplex DNA can be evaluated using thermal melting. The number in parentheses next to the compound number corresponds to the compound number in Schemes 1 and 2.
(§5) Thermal melting studies were also performed on compounds T4 and T5 (Scheme 2) and ZK-14 and SP-2-36.
Turning to `CCCCn1/c(=C/C=C/C2=[N+](CCC[N+](C)(C)C)c3ccccc3C2(C)C)c2cccc3cccc1c32` [ZK-14], the “Thermal Melting (Δ° C.), Duplex DNA, 1:1 ratio” value was 0.6 +/− 0.1 °C.
The same measure, in the same setting: the value for `CC1(C)C(/C=C/C(=C/C=C2\N(CCC[N+](C)(C)C)c3ccccc3C2(C)C)c2ccncc2)=[N+](CCC[N+](C)(C)C)c2ccccc21` [SP-2-36] was 0.2 +/− 0.3 °C; that for `CC1(C)C(/C=C/C(Cl)=C/C=C2\N(CCC[N+](C)(C)C)c3ccc(F)cc3C2(C)C)=[N+](CCC[N+](C)(C)C)c2ccc(F)cc21` [T4] was 0.4 +/− 0.4 °C; that for `CC1(C)C(/C=C/C(Br)=C/C=C2\N(CCC[N+](C)(C)C)c3ccc(F)cc3C2(C)C)=[N+](CCC[N+](C)(C)C)c2ccc(F)cc21` [T5] was 0.1 +/− 0.2 °C.

Staying with this experiment, now noted: 1:2 ratio.
Turning to `CCCCn1/c(=C/C=C/C2=[N+](CCC[N+](C)(C)C)c3ccccc3C2(C)C)c2cccc3cccc1c32` [ZK-14], the “Thermal Melting (Δ° C.), Duplex DNA, 1:2 ratio” value is 0.8 +/− 0.3 °C.
With `CC1(C)C(/C=C/C(=C/C=C2\N(CCC[N+](C)(C)C)c3ccccc3C2(C)C)c2ccncc2)=[N+](CCC[N+](C)(C)C)c2ccccc21` [SP-2-36], the “Thermal Melting (Δ° C.), Duplex DNA, 1:2 ratio” value is 0.5 +/− 0.5 °C.
`CC1(C)C(/C=C/C(Cl)=C/C=C2\N(CCC[N+](C)(C)C)c3ccc(F)cc3C2(C)C)=[N+](CCC[N+](C)(C)C)c2ccc(F)cc21` [T4]: the “Thermal Melting (Δ° C.), Duplex DNA, 1:2 ratio” value was 0.5 +/− 0.4 °C.
Still for that read-out and setting: the value for `CC1(C)C(/C=C/C(Br)=C/C=C2\N(CCC[N+](C)(C)C)c3ccc(F)cc3C2(C)C)=[N+](CCC[N+](C)(C)C)c2ccc(F)cc21` [T5] was 0.8 +/− 0.4 °C.

The experiment is the same for the next values; noted with them: 1:4 ratio.
As to `CCCCn1/c(=C/C=C/C2=[N+](CCC[N+](C)(C)C)c3ccccc3C2(C)C)c2cccc3cccc1c32` [ZK-14], the “Thermal Melting (Δ° C.), Duplex DNA, 1:4 ratio” value was 2.7 +/− 0.1 °C.
Same read-out and setting: the value for `CC1(C)C(/C=C/C(=C/C=C2\N(CCC[N+](C)(C)C)c3ccccc3C2(C)C)c2ccncc2)=[N+](CCC[N+](C)(C)C)c2ccccc21` [SP-2-36] was 0.5 +/− 0.3 °C.
The same measure, in the same setting: for `CC1(C)C(/C=C/C(Cl)=C/C=C2\N(CCC[N+](C)(C)C)c3ccc(F)cc3C2(C)C)=[N+](CCC[N+](C)(C)C)c2ccc(F)cc21` [T4] the value was 0.9 +/− 0.5 °C.
As for `CC1(C)C(/C=C/C(Br)=C/C=C2\N(CCC[N+](C)(C)C)c3ccc(F)cc3C2(C)C)=[N+](CCC[N+](C)(C)C)c2ccc(F)cc21` [T5], the “Thermal Melting (Δ° C.), Duplex DNA, 1:4 ratio” value is 0.8 +/− 0.4 °C.

The same experiment, now with this note: 1:6 ratio.
As for `CCCCn1/c(=C/C=C/C2=[N+](CCC[N+](C)(C)C)c3ccccc3C2(C)C)c2cccc3cccc1c32` [ZK-14], the “Thermal Melting (Δ° C.), Duplex DNA, 1:6 ratio” value is 2.8 +/− 0.3 °C.
With `CC1(C)C(/C=C/C(=C/C=C2\N(CCC[N+](C)(C)C)c3ccccc3C2(C)C)c2ccncc2)=[N+](CCC[N+](C)(C)C)c2ccccc21` [SP-2-36], the “Thermal Melting (Δ° C.), Duplex DNA, 1:6 ratio” value is 0.6 +/− 0.3 °C.
Still for that read-out and setting: the value for `CC1(C)C(/C=C/C(Cl)=C/C=C2\N(CCC[N+](C)(C)C)c3ccc(F)cc3C2(C)C)=[N+](CCC[N+](C)(C)C)c2ccc(F)cc21` [T4] was 1.2 +/− 0.7 °C.
The same measure, in the same setting: the value for `CC1(C)C(/C=C/C(Br)=C/C=C2\N(CCC[N+](C)(C)C)c3ccc(F)cc3C2(C)C)=[N+](CCC[N+](C)(C)C)c2ccc(F)cc21` [T5] was 0.9 +/− 0.4 °C.

The test system of the next experiment is Human Telomere (HT) quadruplex DNA. The experiment is described as follows: Thermal melting UV-Vis absorbance, quadruplex DNA. Format: binding. The following applies: 1:1 ratio. As for the experimental part: as §1
The concentration of each DNA sample mixed with MilliQ water was determined by UV-Vis at 260 nm using their extinction coefficients. Quadruplexes from Human Telomere (Tel22) and c-myc were prepared by heating the corresponding oligonucleotides at 90° C. for 5 minutes in a 10 mM Tris/50 mM KCl buffer at pH 7.5 and then cooling to room temperature (to favor the intramolecular folding).
as §2, §3, §4, §5
Regarding `CCCCn1/c(=C/C=C/C2=[N+](CCC[N+](C)(C)C)c3ccccc3C2(C)C)c2cccc3cccc1c32` [ZK-14], the “Thermal Melting (Δ° C.), Quadruplex DNA, 1:1 ratio” value was 1.9 +/− 0.3 °C.
With `CC1(C)C(/C=C/C(=C/C=C2\N(CCC[N+](C)(C)C)c3ccccc3C2(C)C)c2ccncc2)=[N+](CCC[N+](C)(C)C)c2ccccc21` [SP-2-36], the “Thermal Melting (Δ° C.), Quadruplex DNA, 1:1 ratio” value is 0.9 +/− 0.1 °C.
Still for that read-out and setting: the value for `CC1(C)C(/C=C/C(Cl)=C/C=C2\N(CCC[N+](C)(C)C)c3ccc(F)cc3C2(C)C)=[N+](CCC[N+](C)(C)C)c2ccc(F)cc21` [T4] was 1.6 +/− 0.2 °C; that for `CC1(C)C(/C=C/C(Br)=C/C=C2\N(CCC[N+](C)(C)C)c3ccc(F)cc3C2(C)C)=[N+](CCC[N+](C)(C)C)c2ccc(F)cc21` [T5] was 2.7 +/− 0.3 °C.

The same experiment, now with this note: 1:2 ratio.
As for `CCCCn1/c(=C/C=C/C2=[N+](CCC[N+](C)(C)C)c3ccccc3C2(C)C)c2cccc3cccc1c32` [ZK-14], the “Thermal Melting (Δ° C.), Quadruplex DNA, 1:2 ratio” value is 7.7 +/− 1.1 °C.
Same read-out and setting: the value for `CC1(C)C(/C=C/C(=C/C=C2\N(CCC[N+](C)(C)C)c3ccccc3C2(C)C)c2ccncc2)=[N+](CCC[N+](C)(C)C)c2ccccc21` [SP-2-36] was 1.4 +/− 0.2 °C; that for `CC1(C)C(/C=C/C(Cl)=C/C=C2\N(CCC[N+](C)(C)C)c3ccc(F)cc3C2(C)C)=[N+](CCC[N+](C)(C)C)c2ccc(F)cc21` [T4] was 3.3 +/− 0.4 °C; that for `CC1(C)C(/C=C/C(Br)=C/C=C2\N(CCC[N+](C)(C)C)c3ccc(F)cc3C2(C)C)=[N+](CCC[N+](C)(C)C)c2ccc(F)cc21` [T5] was 6.2 +/− 0.4 °C.

The same experiment, now with this note: 1:4 ratio.
Take `CCCCn1/c(=C/C=C/C2=[N+](CCC[N+](C)(C)C)c3ccccc3C2(C)C)c2cccc3cccc1c32` [ZK-14]: the “Thermal Melting (Δ° C.), Quadruplex DNA, 1:4 ratio” value is 20.4 +/− 1.0 °C.
Same read-out and setting: for `CC1(C)C(/C=C/C(=C/C=C2\N(CCC[N+](C)(C)C)c3ccccc3C2(C)C)c2ccncc2)=[N+](CCC[N+](C)(C)C)c2ccccc21` [SP-2-36] the value was 3.5 +/− 0.8 °C.
Same read-out and setting: for `CC1(C)C(/C=C/C(Cl)=C/C=C2\N(CCC[N+](C)(C)C)c3ccc(F)cc3C2(C)C)=[N+](CCC[N+](C)(C)C)c2ccc(F)cc21` [T4] the value was 8.0 +/− 0.7 °C.
Same read-out and setting: for `CC1(C)C(/C=C/C(Br)=C/C=C2\N(CCC[N+](C)(C)C)c3ccc(F)cc3C2(C)C)=[N+](CCC[N+](C)(C)C)c2ccc(F)cc21` [T5] the value was 13.3 +/− 0.4 °C.

Still in this experiment, the particulars now being: 1:6 ratio.
Regarding `CCCCn1/c(=C/C=C/C2=[N+](CCC[N+](C)(C)C)c3ccccc3C2(C)C)c2cccc3cccc1c32` [ZK-14], the “Thermal Melting (Δ° C.), Quadruplex DNA, 1:6 ratio” value is 26.0 +/− 0.5 °C.
On the same count and under the same terms, the value for `CC1(C)C(/C=C/C(=C/C=C2\N(CCC[N+](C)(C)C)c3ccccc3C2(C)C)c2ccncc2)=[N+](CCC[N+](C)(C)C)c2ccccc21` [SP-2-36] was 4.4 +/− 0.5 °C; that for `CC1(C)C(/C=C/C(Cl)=C/C=C2\N(CCC[N+](C)(C)C)c3ccc(F)cc3C2(C)C)=[N+](CCC[N+](C)(C)C)c2ccc(F)cc21` [T4] was 10.7 +/− 0.7 °C; that for `CC1(C)C(/C=C/C(Br)=C/C=C2\N(CCC[N+](C)(C)C)c3ccc(F)cc3C2(C)C)=[N+](CCC[N+](C)(C)C)c2ccc(F)cc21` [T5] was 16.9 +/− 0.6 °C.

Still in this experiment, the particulars now being: quadruplex vs duplex.
Take `CCCCn1/c(=C/C=C/C2=[N+](CCC[N+](C)(C)C)c3ccccc3C2(C)C)c2cccc3cccc1c32` [ZK-14]: the “Selectivity for quadruplex over duplex DNA by thermal melting” value was “bind quite strongly to the quadruplex with excellent selectivity”.
Regarding `CC1(C)C(/C=C/C(Br)=C/C=C2\N(CCC[N+](C)(C)C)c3ccc(F)cc3C2(C)C)=[N+](CCC[N+](C)(C)C)c2ccc(F)cc21` [T5], the “Selectivity for quadruplex over duplex DNA by thermal melting” value is listed as “bind quite strongly to the quadruplex with excellent selectivity”.
